Test system: P388
Test: Cytotoxicity against mouse P388 cell
Format: functional, cell-based
Details: for IC50: Mus musculus, P388

Compound | IC50 [nM] | pIC50 (p388)
C/C=C/c1ccc(C[C@H]2C(=O)N[C@@H](C)C(=O)N(C)[C@H]3Cc4ccc(cc4)Oc4cc(ccc4OC)C[C@@H](C(=O)N[C@H](C)C(=O)N[C@@H](C)C(=O)N2C)N(C)C3=O)cc1 | 5.01 | 
COC(=O)C[C@@H]1NC(=O)[C@@H](C)NC(=O)[C@@H]2Cc3ccc(OC)c(c3)Oc3ccc(cc3)C[C@@H](C(=O)N2C)N(C)C(=O)[C@H](C)NC(=S)[C@H](Cc2ccc(OC)cc2)N(C)C1=O | 4.79 | 
COc1ccc(C[C@H]2C(=O)N[C@@H](C)C(=O)N(C)[C@H]3Cc4ccc(cc4)Oc4cc(ccc4OC)C[C@@H](C(=O)N[C@H](C)C(=O)N[C@@H](CS)C(=O)N2C)N(C)C3=O)cc1 | 363 | 
COc1ccc(C[C@H]2C(=O)N[C@@H](C)C(=O)N(C)[C@H]3Cc4ccc(cc4)Oc4cc(ccc4OC)C[C@@H](C(=O)N[C@H](C)C(=O)N[C@@H](CO)C(=O)N2C)N(C)C3=O)cc1 | 14.1 | 
COc1ccc(C[C@H]2C(=O)N[C@@H](C)C(=O)N(C)[C@H]3Cc4ccc(cc4)Oc4cc(ccc4OC)C[C@@H](C(=O)N[C@H](C)C(=O)N[C@@H](CCCO)C(=O)N2C)N(C)C3=O)cc1 | 174 | 
COc1ccc(C[C@H]2C(=O)N[C@@H](C)C(=O)N(C)[C@H]3Cc4ccc(c(O)c4)Oc4cc(ccc4O)C[C@@H](C(=O)N[C@H](C)C(=O)N[C@@H](C)C(=O)N2C)N(C)C3=O)cc1 | 9120 | 
COc1ccc(C[C@H]2C(=O)N[C@@H](C)C(=O)N(C)[C@H]3Cc4ccc(cc4)Oc4cc(ccc4OC)C[C@@H](C(=O)N[C@H](C)C(=O)N4CCC[C@H]4C(=O)N2C)N(C)C3=O)cc1 | 100 | 
COc1ccc(C[C@H]2C(=O)N[C@@H](C)C(=O)N(C)[C@H]3Cc4ccc(cc4)Oc4cc(ccc4OC)C[C@@H](C(=O)N[C@H](C)C(=O)NC4(SCCS4)C(=O)N2C)N(C)C3=O)cc1 | 631 | 
C=C[C@@H]1NC(=O)[C@@H](C)NC(=O)[C@@H]2Cc3ccc(OC)c(c3)Oc3ccc(cc3)C[C@@H](C(=O)N2C)N(C)C(=O)[C@H](C)NC(=O)[C@H](Cc2ccc(OC)cc2)N(C)C1=O | 25.7 | 
COc1ccc(C[C@H]2C(=S)N[C@@H](C)C(=O)N(C)[C@H]3Cc4ccc(cc4)Oc4cc(ccc4OC)C[C@@H](C(=O)N[C@H](C)C(=S)N[C@@H](C)C(=O)N2C)N(C)C3=O)cc1 | 5.5 | 
COc1ccc(C[C@H]2C(=O)N[C@@H](C)C(=O)N(C)[C@H]3Cc4ccc(c(O)c4)Oc4cc(ccc4OC)C[C@@H](C(=O)N[C@H](C)C(=O)N[C@@H](C)C(=O)N2C)N(C)C3=O)cc1O | 15100 | 
CCCc1ccc(C[C@H]2C(=O)N[C@@H](C)C(=O)N(C)[C@H]3Cc4ccc(cc4)Oc4cc(ccc4OC)C[C@@H](C(=O)N[C@H](C)C(=O)N[C@@H](C)C(=O)N2C)N(C)C3=O)cc1 | 25.7 | 
COc1ccc(C[C@H]2C(=O)N[C@@H](C)C(=O)N(C)[C@H]3Cc4ccc(cc4)Oc4cc(ccc4OC)C[C@@H](C(=O)N[C@H](C)C(=O)N[C@@H](CC(=O)O)C(=O)N2C)N(C)C3=O)cc1 | 1200 | 
CCc1ccc(C[C@H]2C(=O)N[C@@H](C)C(=O)N(C)[C@H]3Cc4ccc(cc4)Oc4cc(ccc4OC)C[C@@H](C(=O)N[C@H](C)C(=O)N[C@@H](C)C(=O)N2C)N(C)C3=O)cc1 | 9.33 | 
COc1ccc(C[C@H]2C(=S)N[C@@H](C)C(=O)N(C)[C@H]3Cc4ccc(cc4)Oc4cc(ccc4O)C[C@@H](C(=O)N[C@H](C)C(=O)N[C@@H](C)C(=O)N2C)N(C)C3=O)cc1 | 1.15 | 
C=CC[C@@H]1NC(=O)[C@@H](C)NC(=O)[C@@H]2Cc3ccc(OC)c(c3)Oc3ccc(cc3)C[C@@H](C(=O)N2C)N(C)C(=O)[C@H](C)NC(=O)[C@H](Cc2ccc(OC)cc2)N(C)C1=O | 38.9 | 
COc1ccc(C[C@H]2C(=O)N[C@@H](C)C(=O)N(C)[C@H]3Cc4ccc(cc4)Oc4cc(ccc4OC)C[C@@H](C(=O)N[C@H](C)C(=O)N[C@@H](CSC(C)=O)C(=O)N2C)N(C)C3=O)cc1 | 9.77 | 
COc1ccc(C[C@H]2C(=O)N[C@@H](C)C(=O)N(C)[C@H]3Cc4ccc(cc4)Oc4cc(ccc4OC)C[C@@H](C(=O)N[C@H](C)C(=O)N[C@@H](CCCCO)C(=O)N2C)N(C)C3=O)cc1 | 219 | 
COc1ccc(C[C@H]2C(=O)N[C@@H](C)C(=O)N(C)[C@H]3Cc4ccc(cc4)Oc4cc(ccc4OC)C[C@@H](C(=O)N[C@H](C)C(=O)N[C@@H](CCCN=[N+]=[N-])C(=O)N2C)N(C)C3=O)cc1 | 35.5 | 
COc1ccc(C[C@H]2C(=O)N[C@@H](C)C(=O)N(C)[C@H]3Cc4ccc(cc4)Oc4cc(ccc4OC)C[C@@H](C(=O)N[C@H](C)C(=O)N4CCCC[C@H]4C(=O)N2C)N(C)C3=O)cc1 | 97.7 | 
COc1ccc(C[C@H]2C(=S)N[C@@H](C)C(=O)N(C)[C@H]3Cc4ccc(cc4)Oc4cc(ccc4OC)C[C@@H](C(=O)N[C@H](C)C(=O)N[C@@H](C)C(=O)N2C)N(C)C3=O)cc1 | 0.741 | 

Compound | IC50 [nM] | pIC50 (p388)
COc1ccc2cc1Oc1ccc(cc1)C[C@H]1C(=O)N(C)[C@@H](C2)C(=O)N[C@H](C)C(=O)N[C@@H](C)C(=O)N(C)[C@@H](Cc2ccccc2)C(=O)N[C@@H](C)C(=O)N1C | 295 | 
COc1ccc(C[C@H]2C(=O)N[C@@H](C)C(=O)N(C)[C@H]3Cc4ccc(cc4)Oc4cc(ccc4OC)C[C@@H](C(=O)N[C@H](C)C(=O)N[C@@H](CCC(=O)O)C(=O)N2C)N(C)C3=O)cc1 | 219 | 
CCC[C@@H]1NC(=O)[C@@H](C)NC(=O)[C@@H]2Cc3ccc(OC)c(c3)Oc3ccc(cc3)C[C@@H](C(=O)N2C)N(C)C(=O)[C@H](C)NC(=O)[C@H](Cc2ccc(OC)cc2)N(C)C1=O | 13.8 | 
COc1ccc(C[C@H]2C(=O)N[C@@H](C)C(=O)N(C)[C@H]3Cc4ccc(cc4)Oc4cc(ccc4OC)C[C@@H](C(=O)N[C@H](C)C(=O)N[C@@H](CCO)C(=O)N2C)N(C)C3=O)cc1 | 60.3 | 
COC(=O)C[C@@H]1NC(=O)[C@@H](C)NC(=O)[C@@H]2Cc3ccc(OC)c(c3)Oc3ccc(cc3)C[C@@H](C(=O)N2C)N(C)C(=O)[C@H](C)NC(=O)[C@H](Cc2ccc(OC)cc2)N(C)C1=O | 41.7 | 
COC(=O)CC[C@@H]1NC(=O)[C@@H](C)NC(=O)[C@@H]2Cc3ccc(OC)c(c3)Oc3ccc(cc3)C[C@@H](C(=O)N2C)N(C)C(=O)[C@H](C)NC(=O)[C@H](Cc2ccc(OC)cc2)N(C)C1=O | 58.9 | 
COc1ccc(C[C@H]2C(=S)N[C@@H](C)C(=O)N(C)[C@H]3Cc4ccc(cc4)Oc4cc(ccc4OC)C[C@@H](C(=S)N[C@H](C)C(=O)N[C@@H](C)C(=O)N2C)N(C)C3=O)cc1 | 2.14 | 
COc1ccc(C[C@H]2C(=O)N[C@@H](C)C(=O)N(C)[C@H]3Cc4ccc(cc4)Oc4cc(ccc4OC)C[C@@H](C(=O)N[C@H](C)C(=O)N[C@@H](CC=O)C(=O)N2C)N(C)C3=O)cc1 | 33.9 | 
COc1ccc(C[C@@H]2NC(=O)[C@H](C)NC(=O)[C@@H](C)NC(=O)[C@@H]3Cc4ccc(OC)c(c4)Oc4ccc(cc4)C[C@@H](C(=O)N3C)N(C)C(=O)[C@H](C)NC2=O)cc1 | 120 | 
C[C@@H]1NC(=O)[C@@H](C)NC(=O)[C@@H]2Cc3cccc(c3)Oc3ccc(cc3)C[C@@H](C(=O)N2C)N(C)C(=O)[C@H](C)NC(=O)[C@H](Cc2ccccc2)N(C)C1=O | 525 | 
COc1ccc2cc1Oc1ccc(cc1)C[C@H]1C(=O)N(C)[C@@H](C2)C(=O)N[C@H](C)C(=O)N[C@@H](C)C(=O)N(C)[C@@H](Cc2ccc(C)cc2)C(=O)N[C@@H](C)C(=O)N1C | 24 | 
COc1ccc(C[C@H]2C(=O)N[C@@H](C)C(=O)N(C)[C@H]3Cc4ccc(cc4)Oc4cc(ccc4OC)C[C@@H](C(=O)N[C@H](C)C(=O)N[C@@H](CCSC)C(=O)N2C)N(C)C3=O)cc1 | 20.4 | 
COc1ccc(C[C@H]2C(=O)N[C@@H](C)C(=O)N(C)[C@H]3Cc4ccc(cc4)Oc4cc(ccc4OC)C[C@@H](C(=O)N[C@H](C)C(=O)N[C@@H](C)C(=O)N2C)N(C)C3=O)cc1O | 214 | 
C=Cc1ccc(C[C@H]2C(=O)N[C@@H](C)C(=O)N(C)[C@H]3Cc4ccc(cc4)Oc4cc(ccc4OC)C[C@@H](C(=O)N[C@H](C)C(=O)N[C@@H](C)C(=O)N2C)N(C)C3=O)cc1 | 17 | 
C[C@@H]1NC(=O)[C@@H](C)NC(=O)[C@@H]2Cc3ccc(O)c(c3)Oc3ccc(cc3)C[C@@H](C(=O)N2C)N(C)C(=O)[C@H](C)NC(=O)[C@H](Cc2ccccc2)N(C)C1=O | 42.7 | 
COc1ccc(C[C@H]2C(=O)N[C@@H](C)C(=O)N(C)[C@H]3Cc4ccc(cc4)Oc4cc(ccc4OC)C[C@@H](C(=O)N[C@H](C)C(=O)N4C(=O)CC[C@H]4C(=O)N2C)N(C)C3=O)cc1 | 457 | 
COc1ccc(C[C@H]2C(=O)N[C@@H](C)C(=O)N(C)[C@H]3Cc4ccc(cc4)Oc4cc(ccc4OC)C[C@@H](C(=S)N[C@H](C)C(=O)N[C@@H](C)C(=O)N2C)N(C)C3=O)cc1 | 3.31 | 
COc1ccc(C[C@H]2C(=S)N[C@@H](C)C(=O)N(C)[C@H]3Cc4ccc(cc4)Oc4cc(ccc4OC)C[C@@H](C(=O)N[C@H](C)C(=O)N[C@@H](C)C(=S)N2C)N(C)C3=O)cc1 | 1.62 | 
COc1ccc(C[C@H]2C(=O)N[C@@H](C)C(=O)N(C)[C@H]3Cc4ccc(c(O)c4)Oc4cc(ccc4OC)C[C@@H](C(=O)N[C@H](C)C(=O)N[C@@H](C)C(=O)N2C)N(C)C3=O)cc1 (stereo in doubt; 39) | 4790 | 
COc1ccc(C[C@H]2C(=O)N[C@@H](C)C(=O)N(C)[C@H]3Cc4ccc(c(O)c4)Oc4cc(ccc4OC)C[C@@H](C(=O)N[C@H](C)C(=O)N[C@@H](C)C(=O)N2C)N(C)C3=O)cc1 (stereo in doubt; 40) |  | 5.24
COc1ccc(C[C@H]2C(=O)N[C@@H](C)C(=O)N(C)[C@H]3Cc4ccc(cc4)Oc4cc(ccc4O)C[C@@H](C(=O)N[C@H](C)C(=O)N[C@@H](C)C(=O)N2C)N(C)C3=O)cc1 [DEOXYBOUVARDIN] | 3.55 | 
